Data on 28 molecules can be found in patent US8148367B2 (Takeda Pharmaceutical Company Limited, priority 2008, dated 2012).

The test addresses T1, Recombinant human renin (Homo sapiens, UniProt P00797).
T1 construct: isolate the active form (residues 67-406); made in house; host or cells: FreeStyle 293-F cells, transient expression of pcDNA3.1(+)/hREN
T1 sequence (P00797 67-406): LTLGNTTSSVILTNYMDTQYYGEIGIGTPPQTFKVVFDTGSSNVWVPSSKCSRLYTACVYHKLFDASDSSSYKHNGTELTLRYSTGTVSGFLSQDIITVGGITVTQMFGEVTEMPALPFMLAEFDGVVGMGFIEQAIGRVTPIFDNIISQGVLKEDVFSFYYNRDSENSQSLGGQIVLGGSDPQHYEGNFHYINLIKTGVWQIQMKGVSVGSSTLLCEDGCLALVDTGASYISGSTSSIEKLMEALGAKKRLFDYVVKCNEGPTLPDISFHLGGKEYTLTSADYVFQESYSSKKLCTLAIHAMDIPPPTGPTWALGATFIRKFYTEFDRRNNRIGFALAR
Kind of test: In vitro enzymatic activity assay of renin inhibitors (fluorescence, QXL520/HiLyteFluo488 peptide substrate). The format is biochemical. The following applies: recombinant human renin 3 nM, 1 μM substrate, pre-incubated 10 minutes at 37° C., incubation one hour, pH 7.4, 5% DMSO; read-out: IC50 of Exemplified Compounds Against Renin.
On to `COc1ccccc1NC(=O)NCCn1c(C(=O)N2CCNCC2)c(-c2ccccc2)n(-c2ccccc2C)c1=O` [Example 214, 1-(2-Methoxyphenyl)-3-(2-(2-oxo-4-phenyl-5-(piperazine-1-carbonyl)-3-o-tolyl-2,3-dihydro-1H-imidazol-1-yl)ethyl)urea], for which the concentration for half-maximal inhibition (IC50) was in the range of 500 to 1000 nM. For `COc1cccc(NC(=O)NCCn2c(C(=O)N3CCNCC3)c(-c3ccccc3)n(-c3ccccc3C)c2=O)c1` [Example 215, 1-(3-Methoxyphenyl)-3-(2-(2-oxo-4-phenyl-5-(piperazine-1-carbonyl)-3-o-tolyl-2,3-dihydro-1H-imidazol-1-yl)ethyl)urea], the half-maximal inhibitory concentration (IC50) was 100 to 500 nM. The figure for `Cc1ccccc1-n1c(-c2ccccc2)c(C(=O)N2CCNCC2)n(CCNC(=O)NC(C)C)c1=O` [Example 216, 1-Isopropyl-3-(2-(2-oxo-4-phenyl-5-(piperazine-1-carbonyl)-3-o-tolyl-2,3-dihydro-1H-imidazol-1-yl)ethyl)urea] is over 1000 nM.

As for `Cc1ccccc1-n1c(-c2ccccc2)c(C(=O)N2CCNCC2)n(CCCNS(=O)(=O)c2ccccc2Cl)c1=O` [Example 217, 2-Chloro-N-(3-(2-oxo-4-phenyl-5-(piperazine-1-carbonyl)-3-o-tolyl-2,3-dihydro-1H-imidazol-1-yl)propyl)benzenesulfonamide], the concentration for half-maximal inhibition (IC50) was under 100 nM. The figure for `Cc1ccccc1-n1c(-c2ccccc2)c(C(=O)N2CCNCC2)n(CCCNS(=O)(=O)c2cccc(Cl)c2)c1=O` [Example 218, 3-Chloro-N-(3-(2-oxo-4-phenyl-5-(piperazine-1-carbonyl)-3-o-tolyl-2,3-dihydro-1H-imidazol-1-yl)propyl)benzenesulfonamide] is 100 to 500 nM; for `Cc1ccccc1-n1c(-c2ccccc2)c(C(=O)N2CCNCC2)n(CCCNS(=O)(=O)c2ccc(Cl)cc2)c1=O` [Example 219, 4-Chloro-N-(3-(2-oxo-4-phenyl-5-(piperazine-1-carbonyl)-3-o-tolyl-2,3-dihydro-1H-imidazol-1-yl)propyl)benzenesulfonamide] it is 100 to 500 nM. On to `Cc1ccccc1-n1c(-c2ccccc2)c(C(=O)N2CCNCC2)n(CCCNS(=O)(=O)c2ccccc2C)c1=O` [Example 220, 2-Methyl-N-(3-(2-oxo-4-phenyl-5-(piperazine-1-carbonyl)-3-o-tolyl-2,3-dihydro-1H-imidazol-1-yl)propyl)benzenesulfonamide], for which the IC50 was under 100 nM.

For the molecule `COc1cccc(S(=O)(=O)NCCCn2c(C(=O)N3CCNCC3)c(-c3ccccc3)n(-c3ccccc3C)c2=O)c1` [Example 221, 3-Methoxy-N-(3-(2-oxo-4-phenyl-5-(piperazine-1-carbonyl)-3-o-tolyl-2,3-dihydro-1H-imidazol-1-yl)propyl)benzenesulfonamide], the IC50 lay within 100 to 500 nM.

For `COc1ccc(S(=O)(=O)NCCCn2c(C(=O)N3CCNCC3)c(-c3ccccc3)n(-c3ccccc3C)c2=O)cc1` [Example 222, 4-Methoxy-N-(3-(2-oxo-4-phenyl-5-(piperazine-1-carbonyl)-3-o-tolyl-2,3-dihydro-1H-imidazol-1-yl)propyl)benzenesulfonamide], the IC50 was 100 to 500 nM. The figure for `Cc1ccccc1-n1c(-c2ccccc2)c(C(=O)N2CCNCC2)n(CCCNC(=O)Nc2ccccc2)c1=O` [Example 223, 1-(3-(2-Oxo-4-phenyl-5-(piperazine-1-carbonyl)-3-o-tolyl-2,3-dihydro-1H-imidazol-1-yl)propyl)-3-phenylurea] is 500 to 1000 nM; for `Cc1ccccc1-n1c(-c2ccccc2)c(C(=O)N2CCNCC2)n(CCCNC(=O)Nc2ccccc2Cl)c1=O` [Example 224, 1-(2-Chlorophenyl)-3-(3-(2-oxo-4-phenyl-5-(piperazine-1-carbonyl)-3-o-tolyl-2,3-dihydro-1H-imidazol-1-yl)propyl)urea] it is 100 to 500 nM. The same measure for `COc1ccccc1NC(=O)NCCCn1c(C(=O)N2CCNCC2)c(-c2ccccc2)n(-c2ccccc2C)c1=O` [Example 225, 1-(2-Methoxyphenyl)-3-(3-(2-oxo-4-phenyl-5-(piperazine-1-carbonyl)-3-o-tolyl-2,3-dihydro-1H-imidazol-1-yl)propyl)urea]: 100 to 500 nM. The figure for `COc1cccc(NC(=O)NCCCn2c(C(=O)N3CCNCC3)c(-c3ccccc3)n(-c3ccccc3C)c2=O)c1` [Example 226, 1-(3-Methoxyphenyl)-3-(3-(2-oxo-4-phenyl-5-(piperazine-1-carbonyl)-3-o-tolyl-2,3-dihydro-1H-imidazol-1-yl)propyl)urea] is 100 to 500 nM; for `Cc1ccccc1-n1c(-c2ccccc2)c(C(=O)N2CCNCC2)n(CCCNC(=O)NC(C)C)c1=O` [Example 227, 1-Isopropyl-3-(3-(2-oxo-4-phenyl-5-(piperazine-1-carbonyl)-3-o-tolyl-2,3-dihydro-1H-imidazol-1-yl)propyl)urea] it is over 1000 nM; for `COc1ccc(NC(=O)NCCn2c(C(=O)N3CCNCC3)c(-c3ccccc3)n(-c3ccccc3C)c2=O)cc1` [Example 228, 1-(4-Methoxyphenyl)-3-(2-(2-oxo-4-phenyl-5-(piperazine-1-carbonyl)-3-o-tolyl-2,3-dihydro-1H-imidazol-1-yl)ethyl)urea] it is 500 to 1000 nM.

Regarding `Cc1ccccc1-n1c(-c2ccccc2)c(C(=O)N2CCNCC2)n(CCCNS(=O)(=O)c2ccccc2F)c1=O` [Example 229, 2-Fluoro-N-(3-(2-oxo-4-phenyl-5-(piperazine-1-carbonyl)-3-o-tolyl-2,3-dihydro-1H-imidazol-1-yl)propyl)benzenesulfonamide], the concentration for half-maximal inhibition (IC50) is 500 to 1000 nM.

Take `Cc1ccccc1-n1c(-c2ccccc2)c(C(=O)N2CCNCC2)n(CCNC(=O)c2ccccc2F)c1=O` [Example 230, 2-Fluoro-N-(2-(2-oxo-4-phenyl-5-(piperazine-1-carbonyl)-3-o-tolyl-2,3-dihydro-1H-imidazol-1-yl)ethyl)benzamide]: the IC50 was over 1000 nM. The figure for `Cc1ccccc1-n1c(-c2ccccc2)c(C(=O)N2CCNCC2)n(CCNC(=O)c2ccccc2Cl)c1=O` [Example 231, 2-Chloro-N-(2-(2-oxo-4-phenyl-5-(piperazine-1-carbonyl)-3-o-tolyl-2,3-dihydro-1H-imidazol-1-yl)ethyl)benzamide] is over 1000 nM; for `Cc1ccccc1-n1c(-c2ccccc2)c(C(=O)N2CCNCC2)n(CCNC(=O)c2cccc(Cl)c2)c1=O` [Example 232, 3-Chloro-N-(2-(2-oxo-4-phenyl-5-(piperazine-1-carbonyl)-3-o-tolyl-2,3-dihydro-1H-imidazol-1-yl)ethyl)benzamide] it is 500 to 1000 nM.

For the molecule `Cc1ccccc1-n1c(-c2ccccc2)c(C(=O)N2CCNCC2)n(CCNC(=O)c2ccc(Cl)cc2)c1=O` [Example 233, 4-Chloro-N-(2-(2-oxo-4-phenyl-5-(piperazine-1-carbonyl)-3-o-tolyl-2,3-dihydro-1H-imidazol-1-yl)ethyl)benzamide], the IC50 lay in the range of 500 to 1000 nM. In the case of `COc1ccccc1C(=O)NCCn1c(C(=O)N2CCNCC2)c(-c2ccccc2)n(-c2ccccc2C)c1=O` [Example 234, 2-Methoxy-N-(2-(2-oxo-4-phenyl-5-(piperazine-1-carbonyl)-3-o-tolyl-2,3-dihydro-1H-imidazol-1-yl)ethyl)benzamide], the IC50 lay within 500 to 1000 nM. The figure for `COc1ccc(C(=O)NCCn2c(C(=O)N3CCNCC3)c(-c3ccccc3)n(-c3ccccc3C)c2=O)cc1` [Example 235, 4-Methoxy-N-(2-(2-oxo-4-phenyl-5-(piperazine-1-carbonyl)-3-o-tolyl-2,3-dihydro-1H-imidazol-1-yl)ethyl)benzamide] is 500 to 1000 nM; for `Cc1ccccc1-n1c(-c2ccccc2)c(C(=O)N2CCNCC2)n(CCNC(=O)C(C)C)c1=O` [Example 236, N-(2-(2-oxo-4-phenyl-5-(piperazine-1-carbonyl)-3-o-tolyl-2,3-dihydro-1H-imidazol-1-yl)ethyl)isobutyramide] it is over 1000 nM.

For `Cc1ccccc1-n1c(-c2ccccc2)c(C(=O)N2CCNCC2)n(CCNC(=O)C2CCCCC2)c1=O` [Example 237, N-(2-(2-oxo-4-phenyl-5-(piperazine-1-carbonyl)-3-o-tolyl-2,3-dihydro-1H-imidazol-1-yl)ethyl)cyclohexanecarboxamide], the IC50 was over 1000 nM. The figure for `Cc1ccccc1-n1c(-c2ccccc2)c(C(=O)N2CCNCC2)n(CCNC(=O)CC(C)C)c1=O` [Example 238, 3-Methyl-N-(2-(2-oxo-4-phenyl-5-(piperazine-1-carbonyl)-3-o-tolyl-2,3-dihydro-1H-imidazol-1-yl)ethyl)butanamide] is over 1000 nM; for `Cc1ccccc1-n1c(-c2ccccc2)c(C(=O)N2CCNCC2)n(CCCNS(=O)(=O)C(C)C)c1=O` [Example 239, N-(3-(2-oxo-4-phenyl-5-(piperazine-1-carbonyl)-3-o-tolyl-2,3-dihydro-1H-imidazol-1-yl)propyl)propane-2-sulfonamide] it is over 1000 nM; for `Cc1ccccc1-n1c(-c2ccccc2)c(C(=O)N2CCNCC2)n(CCCNC(=O)c2ccccc2F)c1=O` [Example 240, 2-Fluoro-N-(3-(2-oxo-4-phenyl-5-(piperazine-1-carbonyl)-3-o-tolyl-2,3-dihydro-1H-imidazol-1-yl)propyl)benzamide] it is over 1000 nM. The same measure for `Cc1ccccc1-n1c(-c2ccccc2)c(C(=O)N2CCNCC2)n(CCCNC(=O)c2ccccc2Cl)c1=O` [Example 241, 2-Chloro-N-(3-(2-oxo-4-phenyl-5-(piperazine-1-carbonyl)-3-o-tolyl-2,3-dihydro-1H-imidazol-1-yl)propyl)benzamide]: over 1000 nM.
